The record followed here is patent US20200352201A1, “METHOD OF VACUUM […] WITH PEROXYC[…] SOLUTIONS” (ZEE COMPANY, INC., priority 2019, published 2020).

Test [1] in a line: Vacuum infusing boneless beef parts, organoleptic shelf life of the ground product. The conditions noted are these: vacuum tumbled about 15 minutes at about -0.4 bar, stored at about 4° C., first failure of duplicates. On the procedure:
Samples of beef in an amount of about 1 pound were prepared from boneless beef parts. Each sample was provided in a vacuum container of a vacuum tumbler in the presence of the antimicrobial solution (peroxyacetic acid (“PAA”) or peroxylactic acid (“PLA”)) provided in Table 2, with the control subjected to the same volume of sterile water. The pressure was reduced in the vacuum tumbler to about −0.4 bar, and the contents were rotated in the vacuum-tumbler while under pressure for a period of time of about 15 minutes. Pressure was then returned to atmospheric pressure and the contents of the vacuum container were subjected to grinding and then stored in a sealed plastic bag at about 4° C. The ground product was evaluated daily for appearance and order until reaching failure by abnormal coloration and/or odor. The Control and each microbial concentration sample was performed in duplicate, with the first date of organoleptic failure for the duplicate samples reported in Table 1.

Test [2] can be described thus: Vacuum infusing boneless poultry parts, organoleptic shelf life of the ground product. The conditions noted are these: vacuum tumbled about 15 minutes at about -0.4 bar, stored at about 4° C., first failure of duplicates. As for the experimental part: Samples of poultry in an amount of about 1 pound were prepared from boneless poultry parts. Each sample was provided in a vacuum container of a vacuum tumbler in the presence of the antimicrobial solution (peroxyacetic acid (“PAA”) or peroxylactic acid (“PLA”)) provided in Table 1, with the control subjected to the same volume of sterile water. The pressure was reduced in the vacuum tumbler to about −0.4 bar, and the contents were rotated in the vacuum-tumbler while under pressure for a period of time of about 15 minutes. Pressure was then returned to atmospheric pressure and the contents of the vacuum container were subjected to grinding and then stored in a sealed plastic bag at about 4° C. The ground product was evaluated daily for appearance and order until reaching failure by abnormal coloration and/or odor. The Control and each microbial concentration sample was performed in duplicate, with the first date of organoleptic failure for the duplicate samples reported in Table 1.

In the case of `CC(O)C(=O)OO` (stereo not shown) [PLA, peroxylactic acid], the “Days to Organoleptic Failure” value in test [1] (100 ppm) came to 11 days; in test [1] (250 ppm) it was 13 days; in test [1] (500 ppm) it was 15 days; in test [1] (1000 ppm) it was 17 days; in test [2] (100 ppm) it was 11 days; in test [2] (250 ppm) it was 14 days. Besides, the “Days to Organoleptic Failure” value came to 16 days in test [2] (500 ppm) and 19 days in test [2] (1000 ppm).

peroxyacetic acid [PAA]: the “Days to Organoleptic Failure” value in test [1] (100 ppm) was determined as 11 days; in test [1] (250 ppm), 13 days; in test [1] (500 ppm), 15 days; in test [1] (1000 ppm), 17 days; in test [2] (100 ppm), 11 days; in test [2] (250 ppm) it was 13 days. Also, the “Days to Organoleptic Failure” value in test [2] (500 ppm) worked out at 17 days; in test [2] (1000 ppm), 19 days.
